# Measurements reported in US10385103B2, “Cell-permeable (ICP)-SOCS3 recombinant protein and uses thereof” (CELLIVERY THERAPEUTICS, INC., priority 2014, dated 2019).
# Tested on: RAW 264.7 cells
# Experiment: Quantitative cell-permeability of FITC-labeled aMTD- or rPeptide-fused CRA recombinant proteins (flow cytometry)
# Type: cell-based
# Settings: for Relative Ratio to aMTD AVE: cell-permeability of rPeptide-fused CRA recombinant protein relative to average of 240 aMTDs
# Text: The aMTDs and rPeptides were fluorescently labeled and compared based on the critical factors for cell-permeability by using flow cytometry and confocal laser scanning microscopy (FIGS. 5 to 8). The cellular uptake of the peptide-fused non-functional cargo recombinant proteins could quantitatively be evaluated in flow cytometry, while confocal laser scanning microscopy allows intracellular uptake to be assessed visually. The analysis included recombinant proteins fused to a negative control [rP38] that has opposite characteristics (hydrophilic and aromatic sequence: […] NO: 952)) to the aMTDs (hydrophobic and aliphatic sequences). Relative cell-permeability (relative fold) of aMTDs to the negative control was also analyzed (Table 23 and FIG. 9). […] RAW 264.7 cells were treated with 10 μM FITC-labeled recombinant proteins for 1 hour at 37° C., washed three times with cold PBS, treated with 0.25% tripsin/EDTA (Sigma-Aldrich, St. Louis, Mo.) for 20 minutes at 37° C. to remove cell-surface bound proteins. Cell-permeability of these recombinant proteins were analyzed by flow cytometry (Guava, Millipore, Darmstadt, Germany) using the FlowJo cytometric analysis software (FIGS. 5 to 6).
# [1] = cell-permeability of aMTD-fused CRA recombinant protein relative to negative control (A: rP38)
# [2] = cell-permeability of aMTD-fused CRA recombinant protein relative to reference CPP (B: MTM12)
# [3] = cell-permeability of aMTD-fused CRA recombinant protein relative to reference CPP (C: MTD85)
# [4] = cell-permeability relative to negative control rP38 (A type), aMTD-fused CRA recombinant protein, 10 μM FITC-labeled, 1 hour, 37° C., RAW 264.7 cells
# [5] = cell-permeability relative to reference CPP MTD85 (C type), aMTD-fused CRA recombinant protein, 10 μM FITC-labeled, 1 hour, 37° C., RAW 264.7 cells
# [6] = cell-permeability relative to reference CPP MTM12 (B type), aMTD-fused CRA recombinant protein, 10 μM FITC-labeled, 1 hour, 37° C., RAW 264.7 cells
# [7] = 10 μM FITC-labeled, 1 hour, 37° C., RAW 264.7 cells
# [8] = relative cell-permeability of rPeptide vs reference A (not defined)
# [9] = relative cell-permeability of rPeptide vs reference CPP B: MTM12
# [10] = relative cell-permeability of rPeptide vs reference CPP C: MTD85
Substance,Relative Ratio (Fold) A [4] [Fold],Relative Ratio (Fold) C [5] [Fold],Relative Ratio (Fold) B [6] [Fold],Relative Ratio to aMTD AVE [7],other results
1 (AAALAPVVLALP; Amino acid Sequence of aMTD1) [compound 1],–,–,–,–,Relative Ratio (Fold) A [1]: 17.7 Fold; Relative Ratio (Fold) B [2]: 11.8 Fold; Relative Ratio (Fold) C [3]: 6.0 Fold
2 (AAAVPLLAVVVP; Amino acid Sequence of aMTD2) [compound 2],–,–,–,–,Relative Ratio (Fold) A [1]: 40.9 Fold; Relative Ratio (Fold) B [2]: 27.2 Fold; Relative Ratio (Fold) C [3]: 13.8 Fold; Relative Ratio (Fold) A (relative cell-permeability of aMTD vs reference A (not defined)): 40.9 Fold; Relative Ratio (Fold) B (relative cell-permeability of aMTD vs reference CPP B: MTM12): 27.2 Fold; Relative Ratio (Fold) C (relative cell-permeability of aMTD vs reference CPP C: MTD85): 13.8 Fold
3 (AALLVPAAVLAP; Amino acid Sequence of aMTD3) [compound 3],–,–,–,–,Relative Ratio (Fold) A [1]: 27.0 Fold; Relative Ratio (Fold) B [2]: 18.0 Fold; Relative Ratio (Fold) C [3]: 9.1 Fold
4 (ALALLPVAALAP; Amino acid Sequence of aMTD4) [compound 4],2.0,0.7,1.3,–,–
5 (AAALLPVALVAP; Amino acid Sequence of aMTD5) [compound 5],3.1,1.0,2.1,–,–
11 (VVALAPALAALP; Amino acid Sequence of aMTD11) [compound 11],–,–,–,–,Relative Ratio (Fold) A [1]: 9.5 Fold; Relative Ratio (Fold) B [2]: 6.3 Fold; Relative Ratio (Fold) C [3]: 3.2 Fold
12 (LLAAVPAVLLAP; Amino acid Sequence of aMTD12) [compound 12],2.2,0.7,1.5,–,–
13 (AAALVPVVALLP; Amino acid Sequence of aMTD13) [compound 13],7.0,2.4,4.7,–,–
16 (NNSCTTYTNGSQ; Amino acid Sequence of rPeptide ID 16) [compound 16],–,–,–,0.08,Relative Ratio (Fold) A [8]: 1.6 Fold; Relative Ratio (Fold) B [9]: 1.1 Fold; Relative Ratio (Fold) C [10]: 0.5 Fold
17 (GGCSAPQTTCSN; Amino acid Sequence of rPeptide ID 17) [compound 17],–,–,–,0.08,–
18 (NYCCTPTTNGQS; Amino acid Sequence of rPeptide ID 18) [compound 18],–,–,–,0.10,–
21 (AVALLPALLAVP; Amino acid Sequence of aMTD21) [compound 21],–,–,–,–,Relative Ratio (Fold) A [1]: 18.9 Fold; Relative Ratio (Fold) B [2]: 12.6 Fold; Relative Ratio (Fold) C [3]: 6.4 Fold
24 (IALAAPALIVAP; Amino acid Sequence of aMTD24) [compound 24],2.3,0.8,1.6,–,–
25 (IVAVAPALVALP; Amino acid Sequence of aMTD25) [compound 25],2.4,0.8,1.6,–,–
26 (AAIALAAPLAIV; Amino acid Sequence of rPeptide ID 26) [compound 26],–,–,–,0.65,–
29 (VLPPLPVLPVLP; Amino acid Sequence of rPeptide ID 29) [compound 29],–,–,–,0.07,Relative Ratio (Fold) A [8]: 1.4 Fold; Relative Ratio (Fold) B [9]: 0.9 Fold; Relative Ratio (Fold) C [10]: 0.5 Fold
38 (YYNQSTCGGQCY; Amino acid Sequence of rPeptide ID 38) [compound 38],–,–,–,0.05,–
39 (CYNTSPCTGCCY; Amino acid Sequence of rPeptide ID 39) [compound 39],–,–,–,0.29,–

Substance,Relative Ratio (Fold) A [4] [Fold],Relative Ratio (Fold) C [5] [Fold],Relative Ratio (Fold) B [6] [Fold],Relative Ratio to aMTD AVE [7],other results
43 (LLAAPLVVAAVP; Amino acid Sequence of aMTD43) [compound 43],2.1,0.7,1.4,–,–
61 (VAALPVLLAALP; Amino acid Sequence of aMTD61) [compound 61],–,–,–,–,Relative Ratio (Fold) A [1]: 31.2 Fold; Relative Ratio (Fold) B [2]: 20.8 Fold; Relative Ratio (Fold) C [3]: 10.5 Fold
62 (VALLAPVALAVP; Amino acid Sequence of aMTD62) [compound 62],1.4,0.5,0.9,–,–
64 (AIVALPVAVLAP; Amino acid Sequence of aMTD64) [compound 64],–,–,–,–,Relative Ratio (Fold) A [1]: 15.8 Fold; Relative Ratio (Fold) B [2]: 10.6 Fold; Relative Ratio (Fold) C [3]: 5.3 Fold
65 (IAIVAPVVALAP; Amino acid Sequence of aMTD65) [compound 65],3.0,1.0,2.0,–,–
66 (AGVLGGPIMGVP; Amino acid Sequence of rPeptide ID 66) [compound 66],–,–,–,0.13,–
67 (LDAEVPLADDVP; Amino acid Sequence of rPeptide ID 67) [compound 67],–,–,–,0.08,Relative Ratio (Fold) A [8]: 1.5 Fold; Relative Ratio (Fold) B [9]: 0.9 Fold; Relative Ratio (Fold) C [10]: 0.5 Fold
68 (VAPVLPAAPLVP; Amino acid Sequence of rPeptide ID 68) [compound 68],–,–,–,0.32,–
82 (AVVLAPVAAVLP; Amino acid Sequence of aMTD82) [compound 82],2.1,0.7,1.4,–,–
83 (LAVAAPLALALP; Amino acid Sequence of aMTD83) [compound 83],1.4,0.5,0.9,–,–
84 (AAVAAPLLLALP; Amino acid Sequence of aMTD84) [compound 84],1.5,0.5,1.0,–,–
85 (LLVLPAAALAAP; Amino acid Sequence of aMTD85) [compound 85],1.9,0.7,1.3,–,–
97 (ALLAAPPALLAL; Amino acid Sequence of rPeptide ID 97) [compound 97],–,–,–,0.41,–
105 (LLALAPAALLAP; Amino acid Sequence of aMTD105) [compound 105],4.0,1.3,2.6,–,–
113 (PVAVALLIAVPP; Amino acid Sequence of rPeptide ID 113) [compound 113],–,–,–,0.61,–
121 (AIVALPALALAP; Amino acid Sequence of aMTD121) [compound 121],2.5,0.8,1.7,–,–
124 (IAVALPALIAAP; Amino acid Sequence of aMTD124) [compound 124],–,–,–,–,Relative Ratio (Fold) A [1]: 43.6 Fold; Relative Ratio (Fold) B [2]: 29.0 Fold; Relative Ratio (Fold) C [3]: 14.7 Fold
139 (TGSTNSPTCTST; Amino acid Sequence of rPeptide ID 139) [compound 139],–,–,–,0.17,–
